Literature values, collected in patent US20140037700A1, “Composition and Method for Enhancing an Immune Response” (priority 2011, published 2014).

Experiments:
[1] = system: tuberculosis growth in human monocytes; set-up: dose or concentration left out as unconfirmed; conditions: alone, in vitro; Denis et al.
[2] = system: anti-microbial peptide cathelicidin; conditions: exposure of macrophages
[3] = in the presence of a normal or high calcium diet; DeLuca et al.
[4] = system: M. tb cells in NRP2 state; conditions: oxygen 0.06% of normal saturation (anaerobic)
[5] = combined with liposomes
[6] = system: M. tuberculosis survival within macrophages
TACO gene transcription = conditions: human macrophages

## C=C1/C(=C\C=C2/CCC[C@]3(C)[C@@H]([C@H](C)CCCC(C)(C)O)CC[C@@H]23)C[C@@H](O)C[C@@H]1O [Calcitriol, 1,25-dihydroxyvitamin D]
[1]
  ability of human monocytes to restrict tuberculosis growth: significant ability to restrict tuberculosis growth
[2]
  expression of anti-microbial peptide cathelicidin: induces expression
M.tb within macrophages; even at extremely low concentrations, Crowle et al.
  bacillary replication in macrophages: slow and stop bacillary replication
M.tb within macrophages; primary human macrophages infected with virulent M. tb
  colony forming units: reduced colony forming units
[3]
  prevention or suppression of autoimmune disease in models: prevent or markedly suppress

## NNC(=O)c1ccncc1 [isoniazid]
[4]
  susceptibility of NRP2 cells to antibiotic: resistant

## Cc1ncc([N+](=O)[O-])n1CCO [metronidazole]
[4]
  susceptibility of NRP2 cells to antibiotic: sensitive

## Monophosphoryl lipid A
[5]
  mucosal immunoprotective responses: induce mucosal immunoprotective responses

## epigallocatechin-3-gallate [EGCG]
[6]; in vitro, flow cytometry and colony counts
  mycobacterium survival within macrophages: substantially reduced mycobacterium survival
[6]; used prior to M. tb exposure in vitro
  M. tuberculosis survival within macrophages: completely inhibits
TACO gene transcription
  TACO gene transcription: down-regulates TACO gene transcription in a dose-dependent manner
